Results on 5 compounds are retold here after patent US5436243A, “Aminoanthraquinone derivatives to combat multidrug resistance” (priority 1993, dated 1995).

Like-named read-outs stand apart in the source and are kept apart here. Some results are limits rather than exact numbers.

For data set [1], the system named is PKC. The experiment in a line: Micellar PKC screening assay. The format is biochemical. An excerpt:
The N-substituted diaminoanthraquinone, 1b, (1,4-bis-[[3'-(diethylamino)propyl]amino]anthraquinone), was identified as a PKC inhibitor in the micellar PKC screening assay and in platelets. […] Spectrophotometric analysis of 1b and lc indicated they were excellent chromophores with absorbance maxima at 648 and 600 nm in chloroform, respectively, and extinction coefficients of approximately 20,000. At these wavelengths, there was minimal absorbance by cellular components contained in the chloroform phase. These properties of 1b and 1c were utilized to determine the time course of accumulation of these compounds in MDR MCF7 Adr 10 cells.
The activities of 1a, 1b, 1c and 1d and mitoxantrone, an anthraquinone antineoplastic drug, were evaluated in vinblastine drug accumulation assays performed by the following method. […] Mitoxantrone was identified as a PKC inhibitor in miceliar PKC assays. Compound 1d (1,4-bis-[[2-(4-morpholino)ethyl]amino]anthraquinone) was only evaluated in cellular studies.

Data set [2] deals with granulocyte-macrophage progenitors (CFU-GM). The experiment in a line: cells. As to conditions: for IC50: Homo sapiens, CFU-GM, read-out: Continuous Exposure IC50, CFU-GM. Here is the method: (§1) Myelosuppression is often a dose limiting side effect of chemotherapeutic agents. […] The toxicities to human granulocyte-macrophage progenitors (CFU-GM) of 1b, 1c, and VLB was assessed by measuring inhibition of CFU-GM proliferation in cultures continuously exposed to each agent alone and compared to the toxicities to sensitive and resistant MCF7 in tumor cell clonogenic assays.
(§2) METHOD: The CFLI-GM assay measures clonal proliferation of granulocyte/macrophage precursors in semisolid agar cultures. The progeny of the granulocyte/macrophage precursors remain in proximity of the progenitor cells and form colonies. Colonies which contain greater than 40 cells after 10-12 days of culture are counted using an inverted phase contrast microscope. The tumor cell clonogenic assays measure clonal proliferation of tumor cells. In this assay, 300-500 cells are plated in 10 cm^2 wells, allowed to adhere overnight, and are treated the following day. Tumor cell colonies were counted after 10-12 days of culture. The times of exposure in these experiments are similar; however, the concentrations of FCS are 20% in the CFU-GM assay and 10% in the tumor cell clonogenic assays. The IC50's are calculated as described above for the MTT proliferation assays. (See Example 4).
(§3) To facilitate this comparison, a CFLI-GM toxicity index was calculated by dividing the CFU-GM IC50 by the respective tumor cell clonogenic IC50's in sensitive and resistant cells.

A short description of another data set: in vitro. As to conditions: human. Here is the method: as §1, §2, §3
Data set [3] can be described thus: Partition in Bligh-Dyer extracts. The format is physicochemical. The settings on record: Bligh-Dyer extracts of treated cells. Here is the method: At these wavelengths, there was minimal absorbance by cellular components contained in the chloroform phase. […] METHOD: […] The monolayers were treated with 25 μM 1b or 1c and incubated at 37° C. After incubating the samples for the times indicated in FIG. 1, the monolayers were washed three times with DPBS and detached using 1 ml of Trypsin-EDTA.An aliquot of the cell suspension was counted using a Coulter Counter and a 0.8 ml aliquot was extracted in a Bligh-Dyer extraction (Bligh et at., Can. J. Biochem. 31:911-916 (1959)). The absorbance of the lower chloroform phase was measured at 648 nm and 600 nm using a spectrophotometer. The amount of 1b or 1c present in the extract was quantitated from a standard curve performed in cell extracts. The data is expressed as nmol anthraquinone/10^6 cells.

Data set [4] concerns MCF7 Adr 10 human breast cancer cells. The experiment in a line: Time course of accumulation of anthraquinones in cells. The format is cell-based. The settings on record: 25 μM, 37° C., MCF7 Adr 10 cells. Here is the method:
METHOD: Near confluent monolayers of MCF7 ADR 10 were washed 2 times with Dulbecco's Phosphate Buffered Saline (DPBS) and 1 ml of Iscove's Modified Dulbecco's Medium (IMDM) was added to each well. The monolayers were treated with 25 μM 1b or 1c and incubated at 37° C. After incubating the samples for the times indicated in FIG. 1, the monolayers were washed three times with DPBS and detached using 1 ml of Trypsin-EDTA.An aliquot of the cell suspension was counted using a Coulter Counter and a 0.8 ml aliquot was extracted in a Bligh-Dyer extraction (Bligh et at., Can. J. Biochem. 31:911-916 (1959)). The absorbance of the lower chloroform phase was measured at 648 nm and 600 nm using a spectrophotometer. The amount of 1b or 1c present in the extract was quantitated from a standard curve performed in cell extracts. The data is expressed as nmol anthraquinone/10^6 cells.

Data set [5] deals with MCF7 Adr 10. Kind of data set: Tumor cell clonogenic assay, MCF7 ADR 10. The format is cell-based, human. The settings on record: for IC50: Homo sapiens, NCI/ADR-RES, read-out: Continuous Exposure IC50, MCF7 ADR 10.
The test system of data set [6] is MCF7 Adr 10 human breast cancer cells. Kind of data set: Vinblastine accumulation assay, MCF7 Adr 10. The format is cell-based. Here is the method:
[^3 H] vinblastine ([^3 H] VLB) was added to a final concentration of 100 nM and the cells were incubated for 2.5 hours. At this time, the cells were washed 3 times in ice cold PBS and lysed in buffer containing 0.1% Triton X-100. Net accumulation of [^3 H] vinblastine was expressed as pmol/mg protein. In [^3 H]

Data set [7] deals with PKC. The experiment in a line: PKC inhibition in platelets. The format is cell-based.
The next data set relates to MCF7 WT. Kind of data set: Tumor cell clonogenic assay, MCF7 WT. The format is cell-based, human. As to conditions: Homo sapiens.
For data set [8] the following is noted: clinical trials; cited from earlier work.
For a further data set, the system named is MDR cell lines. As to conditions: literature; cited from earlier work.
For data set [9], the system named is renal cell carcinoma cell lines, A704, SKRC7 and UOK-39.
Data set [10] relates to MCF7 Adr 10. Kind of data set: 72 hour MTT proliferation assay, reversal of drug resistance in MCF7 Adr 10. The format is cell-based, human. As to conditions: [1c] 0 μM. How it is done: In 72 hour MTT proliferation assays using the following method, compounds 1b, 1c and 1d were assessed for inhibition of Vinca alkaloid and anthracycline drug resistance in MDR MCF7. Additionally, compounds 1b and 1c were assessed for potentiation of sensitivity to Vinca alkaloid and anthracycline drugs in the parental MCF7 WT cell line.
METHOD: 5000 cells per well were plated in 100 μl of IMDM containing 10% FCS and allowed to adhere overnight. The following day the cells were treated with N-substituted 1,4-diaminoanthraquinones and exposed to graded concentrations of antineoplastic agents. 50 μl of IMDM 10% FCS containing either vehicle or N-substituted 1,4-diaminoanthraquinones at 3 times the final tested concentration was added to cells at timed intervals. The plates were incubated for 2 hours at 37° C. to allow maximal cellular accumulation of N-substituted 1,4-diaminoanthraquinones. 40 μl aliquots of IMDM 10% FCS containing either vehicle or graded concentrations of antineoplastic drugs at 5 times the final concentration were added to treatment groups. Following this addition, 10 μl of IMDM 10% FCS containing either vehicle or N-substituted 1,4-diaminoanthraquinone at 5 times the final concentration was added to each group of wells. The cells were incubated for 72 hours after treatment. At this time the viable cells in each treatment group were estimated in a colorimetric assay by adding MTT and incubating the cells at 37° C. for 3-4 hours. The media in each well was aspirated and MTT formazan was solubilized in isopropyl alcohol acidified with 0.1 N HCl. The absorbance of the solubilized formazan was quantitated using a plate reader spectrophotometer. […] The concentrations of antineoplastic drugs which inhibited proliferation by 50% (IC50's) were estimated by calculating a percentage from the ratio: antineoplastic drug treated groups/control group absorbance and plotting the dose response curve on semilog paper. The IC50 was estimated from this curve. To assess the effects of inhibition of resistance by N-substituted 1,4-diaminoanthraquinones, the percentages were calculated relative to cell groups treated with resistance modifier alone and IC50's calculated as above. A reversal factor was calculated by dividing the IC50 to the antineoplastic drug alone (Control group) by the IC50 to antineoplastic drug in cells treated with resistance modifier.

Data set [11] has as its target P-glycoprotein in MCF7 Adr 10 membrane vesicles (Homo sapiens, UniProt P08183). The settings on record: MCF7 Adr 10 vesicles.
A further data set has as its system patients. As to conditions: human, in vivo; cited from earlier work.
Data set [12] concerns intrinsically resistant renal cell carcinoma cell lines. As to conditions: cited from earlier work.
The subject of data set [13] is P-glycoprotein. The settings on record: cited from earlier work.
The test system of data set [14] is P-glycoprotein. The settings on record: intact MDR cells and MDR membrane vesicles; cited from earlier work.
Setting [15] is: cfu-gm vs mcf7, CFU-GM toxicity indices.

P-glycoprotein in MCF7 Adr 10 membrane vesicles, sequence (P08183 whole entry): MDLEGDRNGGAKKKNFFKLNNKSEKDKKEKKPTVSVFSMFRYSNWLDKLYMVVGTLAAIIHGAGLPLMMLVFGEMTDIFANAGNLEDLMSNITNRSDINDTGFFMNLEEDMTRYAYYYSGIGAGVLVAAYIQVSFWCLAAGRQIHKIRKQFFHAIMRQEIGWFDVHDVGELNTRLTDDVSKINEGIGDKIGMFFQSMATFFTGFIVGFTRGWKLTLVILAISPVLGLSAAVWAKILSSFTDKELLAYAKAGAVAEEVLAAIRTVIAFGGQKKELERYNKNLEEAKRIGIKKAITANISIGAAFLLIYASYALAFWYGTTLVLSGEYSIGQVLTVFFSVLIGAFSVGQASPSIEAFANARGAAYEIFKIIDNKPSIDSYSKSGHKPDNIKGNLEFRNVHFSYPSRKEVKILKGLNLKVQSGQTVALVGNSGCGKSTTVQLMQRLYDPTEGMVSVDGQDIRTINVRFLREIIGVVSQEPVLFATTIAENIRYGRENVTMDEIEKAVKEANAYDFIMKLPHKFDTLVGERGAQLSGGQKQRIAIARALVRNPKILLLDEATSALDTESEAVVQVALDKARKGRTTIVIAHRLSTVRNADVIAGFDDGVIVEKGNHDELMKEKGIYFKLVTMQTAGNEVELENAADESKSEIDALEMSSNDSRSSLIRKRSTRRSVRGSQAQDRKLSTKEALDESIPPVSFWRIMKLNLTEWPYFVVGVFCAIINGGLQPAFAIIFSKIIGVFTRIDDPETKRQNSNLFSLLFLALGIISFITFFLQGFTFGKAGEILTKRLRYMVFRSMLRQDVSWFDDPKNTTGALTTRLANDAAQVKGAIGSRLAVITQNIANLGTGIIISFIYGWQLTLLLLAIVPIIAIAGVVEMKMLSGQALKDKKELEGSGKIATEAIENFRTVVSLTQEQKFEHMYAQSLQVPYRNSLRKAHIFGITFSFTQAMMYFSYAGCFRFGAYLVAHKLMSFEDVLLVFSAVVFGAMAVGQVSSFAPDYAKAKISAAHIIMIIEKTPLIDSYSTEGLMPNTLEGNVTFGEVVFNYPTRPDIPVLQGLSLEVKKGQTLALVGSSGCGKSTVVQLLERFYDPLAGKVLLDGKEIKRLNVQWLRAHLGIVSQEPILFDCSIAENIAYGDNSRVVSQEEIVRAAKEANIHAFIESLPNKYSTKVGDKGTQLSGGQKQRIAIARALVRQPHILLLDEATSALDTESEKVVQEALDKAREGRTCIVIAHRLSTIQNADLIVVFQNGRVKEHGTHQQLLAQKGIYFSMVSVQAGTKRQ
Description for MCF7 WT: The tumor cell clonogenic assays measure clonal proliferation of tumor cells. In this assay, 300-500 cells are plated in 10 cm^2 wells, allowed to adhere overnight, and are treated the following day. Tumor cell colonies were counted after 10-12 days of culture. […] The IC50's are calculated as described above for the MTT proliferation assays.

What is called IC50 is the concentration that gives 50% inhibition. `CCN(CC)CCCNc1ccc(NCCCN(CC)CC)c2c1C(=O)c1ccccc1C2=O` [Compound 1b, 1,4-bis-[[3'-(diethylamino)propyl]amino]anthraquinone]: the “PKC activity in micellar PKC screening assay” value with PKC [1] is “PKC inhibitor”. Moreover, the IC50 in data set [2] came to 1.4 µM; in the data set with MCF7 Adr 10 [5] (tumor cell clonogenic assay, 10-12 days), 0.7 µM; in the data set with MCF7 WT (MCF7, tumor cell clonogenic assay, 10-12 days, read-out: Continuous Exposure IC50, MCF7 WT), 0.4 µM. Moreover, the “CFU-GM Toxicity Index (CFU-GM IC50 / Tumor Cell Clonogenic IC50)” value in data set [2] (human) was found to be 2.0. Further, the selectivity ratio is 3.5 in the data set “in vitro” (CFU-GM Toxicity Index (CFU-GM IC50 / Tumor Cell Clonogenic IC50)); > 1 in “in vitro” (setting [15]); 2 to 3.5 in “in vitro” (mcf7 vs cfu-gm, sensitivity of both tumor lines relative to CFU-GM). In addition, the “blue color partitioning with cellular phospholipids in the lower chloroform phase” value in [3] is on record as > 95%. Further, the “time of maximal accumulation of 1b and 1c” value in data set [4] is on record as “about 2 hours”. In addition, the “relative sensitivity of MCF7 WT and MDR MCF7 to cytotoxicity” value in the data set with MCF7 Adr 10 [5] (clonogenic assays) is “MCF7 WT are more sensitive to cytotoxicity of 1b than MDR MCF7”. The minimal effective concentration in [6] (Homo sapiens, NCI/ADR-RES, 100 nM [3H] VLB, 2.5 hours, FIGS. 2 and 3, read-out: lowest concentration which causes a doubling of basal accumulation of vinblastine) was determined as 25 µM. The “activity in vinblastine accumulation assay / drug accumulation” value in [6] (MDR MCF7) is “increase vinblastine accumulation in MDR MCF7”. Also, in data set [6] (drug accumulation assays), the “drug accumulation relative to other PKC inhibitors” value is reported as “significantly greater activity in drug accumulation assays than other PKC inhibitors”. In addition, the “PKC inhibition in platelets” value in the data set on PKC [7] is “PKC inhibitor”.
For the compound `OCCN1CCN(CC/C=C2\c3ccccc3Sc3ccc(C(F)(F)F)cc32)CC1` [Trans-flupenthixol], the “antipsychotic potency relative to the cis isomer” value in [8] was “much less potent antipsychotic in clinical trials than the cis isomer”. Besides, in the data set on MDR cell lines, the “drug accumulation and reversal of resistance in MDR cell lines” value was “increased doxorubicin accumulation and reversed the MDR phenotype more effectively in a number of MDR cell lines than verapamil”.
With `CC[C@]1(O)C[C@@H]2CN(CCc3c([nH]c4ccccc34)[C@@](C(=O)OC)(c3cc4c(cc3OC)N(C)[C@H]3[C@@](O)(C(=O)OC)[C@H](OC(C)=O)[C@]5(CC)C=CCN6CC[C@]43[C@@H]65)C2)C1` [VLB, reference compound], the “vinblastine IC50 in renal lines relative to vinblastine IC50 of sensitive MCF7” value in [9] was 10-600 fold. In data set [2], the “toxicity to CFU-GM relative to drug sensitive WT cancer cells” value is “approximately twice as toxic to CFU-GM”. Also, the IC50 in data set [2] amounted to 0.00028 µM; in the data set with MCF7 Adr 10 [5], 0.21 µM; with MCF7 Adr 10 [10] (Homo sapiens, NCI/ADR-RES, average ± SD of 3 experiments, read-out: VLB IC50), 0.79 µM; in the data set with MCF7 WT (MCF7, read-out: Continuous Exposure IC50, MCF7 WT) it was 0.00059 µM. Moreover, the selectivity ratio in the data set “in vitro” (setting [15]) is < 1; in “in vitro” (cfu-gm vs mcf7 adr 10, toxicity to CFU-GM relative to MDR cells), ~1000. In addition, the “Reversal Factor (VLB)” value in the data set on MCF7 Adr 10 [10] is reported as 1.0. Besides, the “effect of unlabeled VLB on [3H] VLB association” value in [11] is “inhibited by addition of unlabeled VLB”.
As to `CC/C(=C(\c1ccccc1)c1ccc(OCCN(C)C)cc1)c1ccccc1` [tamoxifen], the toxicity in humans entry in the data set with patients is listed as “minimal neurologic toxicity that was reversible with cessation of tamoxifen”. Further, the “drug accumulation and vinblastine resistance in renal cell carcinoma” value in [12] is “increase drug accumulation and decrease vinblastine resistance”. Also, in the data set on MDR cell lines, the “drug accumulation and reversal of resistance in MDR cell lines” value is recorded as “can also modulate resistance of estrogen receptor-negative MDR cell lines”.
For the compound Cyclosporin A, the “inhibition of vincristine and vinblastine binding to P-glycoprotein” value with P-glycoprotein [13] was “competitively inhibits vincristine and vinblastine binding to the P-glycoprotein”. Besides, in the data set with P-glycoprotein [14], the “[3H] azidopine photoaffinity labeling of P-glycoprotein” value was “inhibit”.
